In patent US10508109B2 (priority 2015, dated 2019):
Counter-ions that a name gives are not always drawn. Like-named read-outs stand apart in the source and are kept apart here.

Experiments:
[1] = tested on: A549; experiment: Cell-based assay, anti-proliferative activity (Cell Counting Kit-8, 72 hours); conditions: Homo sapiens, read-out: IC50 (μM) A549
Protocol: 100 micro-L of cell suspension was seeded onto 96-well microtiter plate (ViewPlate-96FTC, PerkinElmer). […] Cellular growth was determined using Cell Counting Kit-8 (DOJINDO) at 72 hours after the exposure of the candidate inhibitors. […] Accurate IC50 values were calculated as described previously.

[2] = tested on: CCD-18Co; experiment: as above; conditions: Homo sapiens, read-out: IC50 (μM) CCD-18Co
Protocol: (§1) Active candidate inhibitors against SUV39H2 were evaluated for their target-specific cytotoxicity using A549, HCT-116, HFL1, CCD-18Co and PC14. 100 micro-L of cell suspension was seeded onto 96-well microtiter plate (ViewPlate-96FTC, PerkinElmer). The initial cell concentration of A549, HCT-116, HFL1, CCD-18Co and PC14 were 3,000 cells/well, 2,000 cells/well and 2,500 cells/well, respectively. Cellular growth was determined using Cell Counting Kit-8 (DOJINDO) at 72 hours after the exposure of the candidate inhibitors. IC50 was used as an indicator of the anti-proliferative activity of the inhibitors, and calculated by serial dilution method (0, 1.5625, 3.125, 6.25, 12.5, 25, 50, and 100 micro-M). Accurate IC50 values were calculated as described previously.

[3] = tested on: HCT-116; experiment: as above; conditions: Homo sapiens, read-out: IC50 (μM) HCT-116
Protocol: as §1

[4] = tested on: HFL1; experiment: as above; conditions: Homo sapiens, read-out: IC50 (μM) HFL1
Protocol: as §1

[5] = biological target: SUV39H2 (Homo sapiens (Human), UniProt Q9H5I1); conditions: read-out: IC50 (μM) Suv 39H2 assay
[6] = A549 cells, Cell Counting Kit-8, 72 hours
[7] = CCD-18Co cells, Cell Counting Kit-8, 72 hours
[8] = HCT-116 cells, Cell Counting Kit-8, 72 hours
[9] = HFL1 cells, Cell Counting Kit-8, 72 hours

SUV39H2, sequence (Q9H5I1 whole entry): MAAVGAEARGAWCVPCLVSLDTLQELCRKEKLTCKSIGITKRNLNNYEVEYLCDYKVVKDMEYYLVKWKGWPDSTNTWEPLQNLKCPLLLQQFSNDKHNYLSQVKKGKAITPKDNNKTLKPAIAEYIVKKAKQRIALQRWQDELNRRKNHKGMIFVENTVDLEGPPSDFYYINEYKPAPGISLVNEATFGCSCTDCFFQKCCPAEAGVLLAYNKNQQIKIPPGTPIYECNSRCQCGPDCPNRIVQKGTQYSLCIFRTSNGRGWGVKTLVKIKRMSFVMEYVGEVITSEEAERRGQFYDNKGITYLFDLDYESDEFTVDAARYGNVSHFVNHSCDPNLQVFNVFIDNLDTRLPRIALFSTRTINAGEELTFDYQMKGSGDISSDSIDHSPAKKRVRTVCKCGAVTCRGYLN

Row | Compound | IC50 [1, 6] [µM] | IC50 [2, 7] [µM] | IC50 [3, 8] [µM] | IC50 [4, 9] [µM] | IC50 ([5]; enzyme assay) [µM] | IC50 ([1]; A549, 72 h) [µM] | IC50 ([2]; CCD-18Co, 72 h) [µM] | IC50 ([3]; HCT-116, 72 h) [µM] | IC50 ([4]; HFL1, 72 h) [µM] | IC50 [5] [µM]
1 | COc1ccc(-c2cn3ccc(N4CCCC4)cc3n2)cc1C#N [Example 21, 2-methoxy-5-(7-(pyrrolidin-1-yl)imidazo[1,2-a]pyridin-2-yl)benzonitrile hydrobromide] | 4.2 | 5.5 | 3.1 | 2.5 | 0.0733 |  |  |  |  | 
2 | COc1cc(OC)c(-c2cn3ccc(N4CCCCC4)cc3n2)cc1Cl [Example 25, 2-(5-chloro-2,4-dimethoxyphenyl)-7-(piperidin-1-yl)imidazo)[1,2-a]pyridine hydrobromide] | 3 | 2.3 | 2 | 1.4 | 0.0122 |  |  |  |  | 
3 | COc1cc(OC)c(-c2cn3ccc(N4CCC(NC(=O)OC(C)(C)C)C4)nc3n2)cc1Cl (stereo not drawn) [Example 26, tert-butyl (1-(2-(5-chloro-2,4-dimethoxyphenyl)imidazo[1,2-a]pyrimidin-7-yl)pyrrolidin-3-yl)carbamate] | 7.9 | 7.9 | 13 | 6.7 | 0.017 |  |  |  |  | 
4 | COc1cc(OC)c(-c2cn3ccc(-c4cncc(N)c4)cc3n2)cc1Cl [Example 27, 5-[2-(5-chloro-2,4-dimethoxyphenyl)imidazo[1,2-a]pyridin-7-yl]pyridin-3-amine] | 1.9 | 3.3 | 3.3 | 1.8 | 0.0396 |  |  |  |  | 
5 | COc1cc(OC)c(-c2cn3ccc(N4CCN(CCNC(=O)OC(C)(C)C)CC4)cc3n2)cc1Cl [Example 28, tert-butyl (2-(4-(2-(5-chloro-2,4-dimethoxyphenyl)imidazo[1,2-a]pyridin-7-yl)piperazin-1-yl)ethyl)carbamate dihydrochloride] | 3.6 | 4 | 2.8 | 3.4 | 0.021 |  |  |  |  | 
6 | COc1cc(OC)c(-c2cn3ccc(N4CCN(CCN)CC4)cc3n2)cc1Cl [Example 29, 2-(4-(2-(5-chloro-2,4-dimethoxyphenyl)imidazo[1,2-a]pyridin-7-yl)piperazin-1-yl)ethanamine trihydrochloride] |  |  |  |  |  | 7 | 12 | 9.7 | 4.5 | 0.012
7 | COc1cc(OC)c(-c2cn3ccc(N4CCC(CN)CC4)nc3n2)cc1Cl [Example 31, (1-(2-(5-chloro-2,4-dimethoxyphenyl)imidazo[1,2-a]pyrimidin-7-yl)piperidin-4-yl)methanamine hydrochloride] |  |  |  |  |  | 18 | 23 | 22 | 9.3 | 0.0489
8 | COc1cc(OC)c(-c2cn3ccc(N4CCC(CNC(=O)OC(C)(C)C)CC4)nc3n2)cc1Cl [Example 32, tert-butyl ((1-(2-(5-chloro-2,4-dimethoxyphenyl)imidazo[1,2-a]pyrimidin-7-yl)piperidin-4-yl)methyl)carbamate] | 6.7 | 6.3 | 8.4 | 4.6 | 0.037 |  |  |  |  | 
9 | COc1cc(OC)c(-c2cn3ccc(N4CCC(N)C4)nc3n2)cc1Cl (stereo not drawn) [Example 34, 1-(2-(5-chloro-2,4-dimethoxyphenyl)imidazo[1,2-a]pyrimidin-7-yl)pyrrolidin-3-amine hydrochloride] |  |  |  |  |  | 12 | 11 | 9.6 | 4.4 | 0.0273
10 | COc1cc(OC)c(-c2cn3ccc(NCCCN)cc3n2)cc1Cl [Example 35, N^1-(2-(5-chloro-2,4-dimethoxyphenyl)imidazo[1,2-a]pyridin-7-yl)propane-1,3-diamine] | 14 | 14 | 9.8 | 7 | 0.0124 |  |  |  |  | 
11 | COc1cc(OC)c(-c2cn3ccc(N4CCC(NC(=O)OC(C)(C)C)CC4)nc3n2)cc1Cl [Example 36, tert-butyl (1-(2-(5-chloro-2,4-dimethoxyphenyl)imidazo[1,2-a]pyrimidin-7-yl)piperidin-4-yl)carbamate] | 5.6 | 3.8 | 4.1 | 3.2 | 0.0552 |  |  |  |  | 
12 | COc1cc(OC)c(-c2cn3ccc(N4CCC(N)CC4)nc3n2)cc1Cl [Example 42, 1-(2-(5-chloro-2,4-dimethoxyphenyl)imidazo[1,2-a]pyrimidin-7-yl)-piperidin-4-amine hydrochloride] |  |  |  |  |  | 10 | 13 | 6.6 | 4.2 | 0.079
13 | COc1cc(OC)c(-c2cn3ccc(N4CCN(CCO)CC4)nc3n2)cc1Cl [Example 45, 2-(4-(2-(5-chloro-2,4-dimethoxyphenyl)imidazo[1,2-a]pyrimidin-7-yl)-piperazin-1-yl)ethanol] | 18 | 21 | 12 | 17 | 0.0365 |  |  |  |  | 
14 | COc1cc(OC)c(-c2cn3ccc(N(C)CCNC(=O)OC(C)(C)C)cc3n2)cc1Cl [Example 48, tert-butyl (2-((2-(5-chloro-2,4-dimethoxyphenyl)imidazo[1,2-a]pyridine-7-yl)(methyl)aimno)ethyl)carbamate] | 8.2 | 6.4 | 7.3 | 3.8 | 0.0124 |  |  |  |  | 
15 | COc1cc(OC)c(-c2cn3cnc(N)cc3n2)cc1Cl [Example 51, 2-(5-chloro-2,4-dimethoxyphenyl)imidazo[1,2-c]pyrimidin-7-amine] | 9.8 | 6.8 | 8.9 | 8.4 | 0.0531 |  |  |  |  | 
16 | COc1cc(OC)c(-c2cn3ccc(C4=CCNCC4)cc3n2)cc1Cl [Example 52, 2-(5-chloro-2,4-dimethoxyphenyl)-7-(1,2,3,6-tetrahydropyridin-4-yl)imidazo[1,2-a]pyridine] | 1.5 | 1.3 | 1.4 | 1.6 | 0.0616 |  |  |  |  | 
17 | COc1cc(OC(C)C)c(-c2cn3ccc(N4CCCC4)cc3n2)cc1Br [Example 53, hydrobromide] | 2.5 | 2.1 | 2.4 | 1.9 | 0.0181 |  |  |  |  | 
18 | COc1cc(OC)c(-c2cn3ccc(N4CC[C@@H](N)C4)nc3n2)cc1Cl [Example 55, (R)-1-(2-(5-Chloro-2,4-dimethoxyphenyl)imidazo[1,2-a]pyrimidin-7-yl)pyrrolidin-3-amine hydrochloride] |  |  |  |  |  | 12 | 14 | 10 | 4.8 | 0.0262
19 | COc1cc(OC)c(-c2cn3ccc(N4CC[C@H](NC(=O)OC(C)(C)C)C4)nc3n2)cc1Cl [Example 56, (S)-tert-butyl (1-(2-(5-chloro-2,4-dimethoxyphenyl)imidazo[1,2-a]-pyrimidin-7-yl)pyrrolidin-3-yl)carbamate] | 7.5 | 7 | 7 | 5.7 | 0.0168 |  |  |  |  | 
20 | COc1cc(OC)c(-c2cn3ccc(N4CC[C@@H](NC(=O)OC(C)(C)C)C4)nc3n2)cc1Cl [Example 57, (R)-tert-Butyl (1-(2-(5-chloro-2,4-dimethoxyphenyl)imidazo[1,2-a]pyrimidin-7-yl)-pyrrolidin-3-yl)carbamate] | 7.1 | 4.8 | 7.2 | 4 | 0.0108 |  |  |  |  | 
21 | COc1cc(OC)c(-c2cn3ccc(N4CC[C@H](N)C4)nc3n2)cc1Cl [Example 58, (S)-1-(2-(5-chloro-2,4-dimethoxyphenyl)imidazo[1,2-a]pyrimidin-7-yl)-pyrrolidin-3-amine hydrochloride] |  |  |  |  |  | 14 | 13 | 9.4 | 6.2 | 0.0296
22 | COc1cc(OC(C)C)c(-c2cn3ccc(N4CC[C@H](N)C4)cc3n2)cc1Br [Example 59, (S)-1-(2-(5-bromo-2-isopropoxy-4-methoxyphenyl)imidazo[1,2-a]pyridin-7-yl)pyrrolidin-3-amine hydrochloride] |  |  |  |  |  | 3.4 | 3.7 | 2.6 | 1.8 | 0.0112
23 | COc1cc(OC)c(-c2cn3ccc(N4CCC(NC(=O)CCNC(=O)OC(C)(C)C)C4)nc3n2)cc1Br (stereo not drawn) [Example 65] | 28 | 26 | 17 | 27 | 0.014 |  |  |  |  | 
24 | COc1cc(OC)c(-c2cn3ccc(N4CCC(CCN)CC4)nc3n2)cc1Cl [Example 67] | 12 | 13 | 13 | 9.6 | 0.0216 |  |  |  |  | 
